Measured values from patent publication US10978281B2, “Method to obtain unbiased identification of interaction of test compounds with the proteome” (Institute for Systems Biology, priority 2015, dated 2021).

What was measured:
Rv0289/EspG3 = Rv0289/EspG3 (Mycobacterium tuberculosis, UniProt P9WJC7)
DHFR (Rv2763c) = DHFR (Rv2763c) (Mycobacterium tuberculosis, UniProt P9WNX1); format: binding; conditions: melting curve, M. tuberculosis lysate; Tm of DHFR without P218 is 57° C.
DHFR (Rv2763c), sequence (P9WNX1 whole entry): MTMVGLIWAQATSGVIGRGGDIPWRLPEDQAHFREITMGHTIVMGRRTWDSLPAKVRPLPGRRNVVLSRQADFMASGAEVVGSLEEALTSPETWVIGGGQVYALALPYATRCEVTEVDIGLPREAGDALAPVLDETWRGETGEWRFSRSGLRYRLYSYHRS

Rv0289/EspG3, sequence (P9WJC7 whole entry): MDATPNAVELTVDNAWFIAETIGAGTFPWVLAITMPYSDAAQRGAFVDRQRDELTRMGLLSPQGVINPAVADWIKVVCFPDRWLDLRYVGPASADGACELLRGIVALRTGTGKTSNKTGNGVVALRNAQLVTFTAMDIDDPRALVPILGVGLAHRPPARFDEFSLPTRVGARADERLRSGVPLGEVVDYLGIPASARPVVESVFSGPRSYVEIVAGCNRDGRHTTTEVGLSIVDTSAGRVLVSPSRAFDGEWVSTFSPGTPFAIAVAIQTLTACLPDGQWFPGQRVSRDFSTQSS

## CCc1nc(N)nc(N)c1OCCCOc1ccccc1CCC(=O)O [P218]
Rv0289/EspG3
  difference in the Tm values in the presence and absence of compound: no difference
DHFR (Rv2763c)
  temperature at the inflection point (Tm) of DHFR in the presence of P218: 60.9 °C
